pIC50, pKd: −log10 of the molar value. Where two headings read alike, the source gives them in different places.
What was measured:
[1] = tested on: IL12-induced p-STAT4 in human PBMC; assay: IL-12 induced pSTAT4 in human PBMC; type: cell-based; conditions: read-out: p-STAT4 IC50
Protocol: Cells were seeded in a round bottom 96-well plate at the concentration of 200,000 cells/well. A 10-point dilution series of test compound (top dose 10 uM, 1:5 dilution) was added to the well using the liquid dispenser (Tecan D300e) and incubated for 1 hour at 37 C. Then human IL-12 recombinant protein (R&D Systems) was added to the well at the final concentration of 10 ng/ml and incubated for 15 minutes at 37 C. Cell lysates were prepared and analyzed by Phospho STAT4 (Tyr693) Kit (Meso Scale Discovery) following manufacturer's protocol.
For calculation of the inhibition rate, the relative pSTAT4 signal of each well=pSTAT4 signal of each well−the average pSTAT4 signal of baseline. The inhibition %=(the average pSTAT4 signal of IL-12 treatment wells−the relative of pSTAT4 signal in each compound containing well)/the average pSTAT4 signal of IL-12 treatment wells*100%
The curve was plotted as the inhibition % (y-axis) vs. compounds concentration (x-axis) and was fitted with log(inhibitor) vs. normalized response—Variable slope by GraphPad Prism7.0.

TYK2 (JH2 domain) = TYK2 (JH2 domain) (Homo sapiens (Human), UniProt P29597); assay: TYK2 JH2 domain binding assay (DiscoverX KINOMEscan); conditions: 11-point 3-fold dilution, duplicate
Protocol: The assay is performed by combining three components: DNA-tagged kinase; immobilized ligand; and a test compound. The ability of the test compound to compete with the immobilized ligand is measured via quantitative PCR of the DNA tag.
The liganded beads were blocked with excess biotin and washed with blocking buffer (SeaBlock (Pierce), 1% BSA, 0.05% Tween 20, 1 mM DTT) to remove unbound ligand and to reduce non-specific binding. […] Test compounds were prepared as 111× stocks in 100% DMSO. All test compounds were shipped to DiscoverX in DMSO with concentration of 10 mM. Kds were determined using an 11-point 3-fold compound dilution series with three DMSO control points. Each compound was tested in duplicate. […] The compounds were then diluted directly into the assays such that the final concentration of DMSO was 0.9%. All reactions performed in polypropylene 384-well plate. Each was a final volume of 0.02 ml. […] The kinase concentration in the eluates was measured by qPCR.
The amount of kinase measured by qPCR (Signal; y-axis) is plotted against the corresponding compound concentration in nM in log 10 scale (x-axis). Binding constants (Kds) were calculated with a standard dose-response curve using the Hill equation:
The Hill Slope was set to −1.
Curves were fitted using anon-linear least square fit with the Levenberg-Marquardt algorithm.

[2] = tested on: INFα induced pSTAT5 in human PBMC; assay: INFα induced pSTAT5 in human PBMC; type: cell-based; conditions: read-out: p-STAT5 IC50

TYK2 (JH2 domain), sequence (P29597 589-875): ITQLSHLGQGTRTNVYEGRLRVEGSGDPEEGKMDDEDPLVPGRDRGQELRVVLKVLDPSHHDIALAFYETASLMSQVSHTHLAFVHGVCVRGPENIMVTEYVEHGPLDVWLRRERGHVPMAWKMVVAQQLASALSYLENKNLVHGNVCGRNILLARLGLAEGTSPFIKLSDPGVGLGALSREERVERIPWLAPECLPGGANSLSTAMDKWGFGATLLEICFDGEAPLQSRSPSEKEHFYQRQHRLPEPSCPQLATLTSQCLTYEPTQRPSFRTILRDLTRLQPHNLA

Row | Structure (SMILES) | pIC50 ([1]; Homo sapiens, PBMC) | pKd (TYK2 (JH2 domain)) | pIC50 ([2]; human PBMC, INFα 5000 units/ml) | pIC50 ([1]; human PBMC, IL-12 10 ng/ml) | pIC50 ([2]; Homo sapiens, PBMC)
1 | [2H]C([2H])([2H])NC(=O)c1nnc(N2CCN(C(C)C)C2=O)cc1Nc1cccc(-c2ncn(C)n2)c1OC [Example 6, 6-(3-isopropyl-2-oxo-imidazolidin-1-yl)-4-[2-methoxy-3-(1-methyl-1,2,4-triazol-3-yl)anilino]-N-(trideuteriomethyl)pyridazine-3-carboxamide] | > 7.00 | ≥ 9.00 | > 7.00 |  | 
2 | [2H]C([2H])([2H])NC(=O)c1nnc(N2CCN(C3CC(F)(F)C3)C2=O)cc1Nc1cccc(-c2ncn(C)n2)c1OC [Example 10, 6-[3-(3,3-difluorocyclobutyl)-2-oxo-imidazolidin-1-yl]-4-[2-methoxy-3-(1-methyl-1,2,4-triazol-3-yl)anilino]-N-(trideuteriomethyl)pyridazine-3-carboxamide] |  | ≥ 9.00 | > 7.00 | > 7.00 | 
3 | [2H]C([2H])([2H])NC(=O)c1nnc(N2CCN(CC(C)C)C2=O)cc1Nc1cccc(-c2ncn(C)n2)c1OC [Example 17, 6-(3-isobutyl-2-oxo-imidazolidin-1-yl)-4-[2-methoxy-3-(1-methyl-1,2,4-triazol-3-yl)anilino]-N-(trideuteriomethyl)pyridazine-3-carboxamide] |  | ≥ 9.00 |  | > 7.00 | 
4 | [2H]C([2H])([2H])NC(=O)c1nnc(N2CCN(C3CCCC3)C2=O)cc1Nc1cccc(-c2ncn(C)n2)c1OC [Example 18, 6-(3-cyclopentyl-2-oxo-imidazolidin-1-yl)-4-[2-methoxy-3-(1-methyl-1,2,4-triazol-3-yl)anilino]-N-(trideuteriomethyl)pyridazine-3-carboxamide] |  | ≥ 9.00 |  | > 7.00 | 
5 | [2H]C([2H])([2H])NC(=O)c1nnc(N2CCN(C34CC(C3)C4)C2=O)cc1Nc1cccc(-c2ncn(C)n2)c1OC [Example 19, 6-[3-(3-bicyclo[1.1.1]pentanyl)-2-oxo-imidazolidin-1-yl]-4-[2-methoxy-3-(1-methyl-1,2,4-triazol-3-yl)anilino]-N-(trideuteriomethyl)pyridazine-3-carboxamide] |  | ≥ 9.00 |  | > 7.00 | 
6 | [2H]C([2H])([2H])NC(=O)c1nnc(N2CCN(C3CCC3)C2=O)cc1Nc1cccc(-c2ncn(C)n2)c1OC([2H])([2H])[2H] [Example 20, 6-(3-cyclobutyl-2-oxo-imidazolidin-1-yl)-4-[3-(1-methyl-1,2,4-triazol-3-yl)-2-(trideuteriomethoxy)anilino]-N-(trideuteriomethyl)pyridazine-3-carboxamide] |  | ≥ 9.00 |  | > 7.00 | 
7 | [2H]C([2H])([2H])NC(=O)c1nnc(N2CCN(C(C([2H])([2H])[2H])C([2H])([2H])[2H])C2=O)cc1Nc1cccc(-c2ncn(C([2H])([2H])[2H])n2)c1OC [Example 21, 6-(3-isopropyl-2-oxo-imidazolidin-1-yl)-4-[2-methoxy-3-(1-methyl-1,2,4-triazol-3-yl)anilino]-N-(trideuteriomethyl)pyridazine-3-carboxamide] |  | ≥ 9.00 |  | > 7.00 | 
8 | [2H]C([2H])([2H])NC(=O)c1nnc(N2CCN(C3CCC3)C2=O)cc1Nc1cccc(-c2ncn(C([2H])([2H])[2H])n2)c1OC [Example 22, 6-(3-cyclobutyl-2-oxo-imidazolidin-1-yl)-4-[2-methoxy-3-[1-(trideuteriomethyl)-1,2,4-triazol-3-yl]anilino]-N-(trideuteriomethyl)pyridazine-3-carboxamide] |  | ≥ 9.00 |  | > 7.00 | 
9 | COc1c(Nc2cc(NC(=O)C3CC3)ncc2C(=O)C2CC2)cccc1-c1ncn(C)n1 [Example 27] | > 7.00 |  |  |  | > 7.00
10 | [2H]C([2H])([2H])NC(=O)c1nnc(NC(=O)N2CCC2)cc1Nc1cccc(-c2ncn(C)n2)c1OC [Example 28] |  | ≥ 9.00 | > 7.00 |  | 
11 | [2H]C([2H])([2H])NC(=O)c1nnc(NC(=O)N2CCCC2)cc1Nc1cccc(-c2ncn(C)n2)c1OC [Example 29] | > 7.00 | ≥ 9.00 |  |  | 
12 | CNC(=O)c1nnc(NC(=O)N2CCC2)cc1Nc1cccc(-c2ncn(C)n2)c1OC [Example 30] |  | ≥ 9.00 |  | > 7.00 | 
13 | [2H]C1([2H])CN(C(=O)Nc2cc(Nc3cccc(-c4ncn(C)n4)c3OC)c(C(=O)NC([2H])([2H])[2H])nn2)C1 [Example 31] |  |  |  | > 7.00 | 
14 | [2H]C([2H])([2H])NC(=O)c1nnc(NC(=O)N2CC3(CCC3)C2)cc1Nc1cccc(-c2ncn(C)n2)c1OC [Example 32] | > 7.00 | ≥ 9.00 |  |  | 
15 | COc1c(Nc2cc(NC(=O)N3CCC3)ncc2C(=O)C2CC2)cccc1-c1ncn(C)n1 [Example 33] | > 7.00 | ≥ 9.00 |  |  | 
16 | [2H]C([2H])([2H])Oc1c(Nc2cc(NC(=O)C3CC3)ncc2C(=O)C2CC2)cccc1-c1ncn(C)n1 [Example 34] | > 7.00 |  |  |  | 
17 | COc1c(Nc2cc(NC(=O)C(C)C)ncc2C(=O)C2CC2)cccc1-c1ncn(C)n1 [Example 36] |  | ≥ 9.00 |  | > 7.00 | 
18 | [2H]C([2H])([2H])NC(=O)c1nnc(NC(=O)N2CC(F)(F)C2)cc1Nc1cccc(-c2ncn(C)n2)c1OC [Example 47] |  | ≥ 9.00 |  | > 7.00 | 
19 | [2H]C([2H])([2H])NC(=O)c1cnc(N2CCN(C(C)C)C2=O)cc1Nc1cccc(-c2ncn(C)n2)c1OC [Example 48] |  | ≥ 9.00 |  | > 7.00 | 
20 | [2H]C([2H])([2H])NC(=O)c1nnc(NC(=O)N2CCC2)cc1Nc1cccc(-c2ncn(C)n2)c1OC [Example 50] |  | ≥ 9.00 |  | > 7.00 | 
21 | COc1c(Nc2cc(Nc3ccncn3)ncc2C(=O)C2CC2)cccc1-c1ncn(C)n1 [Example 52] |  | ≥ 9.00 |  | > 7.00 | 
22 | [2H]C([2H])([2H])n1cnc(-c2cccc(Nc3cc(NC(=O)C4CC4)ncc3C(=O)C3CC3)c2OC)n1 [Example 54] |  |  | > 7.00 | > 7.00 | 
23 | [2H]C([2H])([2H])NC(=O)c1nnc(N2CCN(C3C[C@@H]3F)C2=O)cc1Nc1cccc(-c2ncn(C)n2)c1OC (stereo partly shown) [Example 78] |  | ≥ 9.00 |  | > 7.00 | 

Row | Structure (SMILES) | pIC50 ([1]; Homo sapiens, PBMC) | pKd (TYK2 (JH2 domain)) | pIC50 ([2]; human PBMC, INFα 5000 units/ml) | pIC50 ([1]; human PBMC, IL-12 10 ng/ml) | pIC50 ([2]; Homo sapiens, PBMC)
24 | [2H]C([2H])([2H])NC(=O)c1nnc(N2CCN(C(C)CO)C2=O)cc1Nc1cccc(-c2ncn(C)n2)c1OC (stereo not shown) [Example 85] |  | ≥ 9.00 |  | 6.00 to 7.00 | 
25 | [2H]C([2H])([2H])NC(=O)c1nnc(N2CCN(C3(C)CC3)C2=O)cc1Nc1cccc(-c2ncn(C)n2)c1OC [Example 88] |  | ≥ 9.00 |  | > 7.00 | 
26 | [2H]C([2H])([2H])NC(=O)c1nnc(N2CCN(CCCC)C2=O)cc1Nc1cccc(-c2ncn(C)n2)c1OC [Example 91] |  | ≥ 9.00 |  | > 7.00 | 
27 | [2H]C([2H])([2H])NC(=O)c1nnc(N2CCN(C3CCC(F)(F)CC3)C2=O)cc1Nc1cccc(-c2ncn(C)n2)c1OC [Example 94] |  | ≥ 9.00 |  | > 7.00 | 
28 | [2H]C([2H])([2H])NC(=O)c1nnc(N2CCN(C3(C#N)CC3)C2=O)cc1Nc1cccc(-c2ncn(C)n2)c1OC [Example 95] |  | ≥ 9.00 |  | > 7.00 | 
29 | [2H]C([2H])([2H])NC(=O)c1nnc(N2CCN(CC3CCC3)C2=O)cc1Nc1cccc(-c2ncn(C)n2)c1OC [Example 96] |  | ≥ 9.00 |  | > 7.00 | 
30 | [2H]C([2H])([2H])NC(=O)c1nnc(N2CCN(C3CCCOC3)C2=O)cc1Nc1cccc(-c2ncn(C)n2)c1OC (stereo not shown) [Example 98] |  | ≥ 9.00 |  | > 7.00 | 
31 | [2H]C([2H])([2H])NC(=O)c1nnc(N2CCN(CCC)C2=O)cc1Nc1cccc(-c2ncn(C)n2)c1OC [Example 99] |  | ≥ 9.00 |  | > 7.00 | 
32 | [2H]C([2H])([2H])NC(=O)c1nnc(N2CCN(C3CC(C)C3)C2=O)cc1Nc1cccc(-c2ncn(C)n2)c1OC (stereo not shown) [Example 100] |  | ≥ 9.00 |  | > 7.00 | 
33 | [2H]C([2H])([2H])NC(=O)c1nnc(N2CCN(C(C([2H])([2H])[2H])C([2H])([2H])[2H])C2=O)cc1Nc1cccc(-c2ncn(C)n2)c1OC [Example 103] |  | ≥ 9.00 |  | > 7.00 | 
34 | COc1c(Nc2cc(Nc3cc(F)ccn3)ncc2C(=O)C2CC2)cccc1-c1ncn(C)n1 [Example 108] |  | ≥ 9.00 | > 7.00 |  | 
35 | CC(C)(O)c1ccc(Nc2cc(Nc3ncccc3S(C)(=O)=O)c(C(=O)C3CC3)cn2)nc1 [Example 126] |  | ≥ 9.00 | > 7.00 |  | 
36 | COc1c(Nc2cc(Nc3cc(C)c(F)cn3)ncc2C(=O)C2CC2)cccc1-c1ncn(C)n1 [Example 145] |  | ≥ 9.00 | > 7.00 |  | 
37 | CCC(=O)c1cnc(Nc2cc(C)n(C)n2)cc1Nc1cccc(-c2ncn(C)n2)c1OC [Example 178] |  |  | > 7.00 |  | 
38 | CCC(=O)c1cnc(Nc2cc(C)n(C)n2)cc1Nc1ncccc1S(C)(=O)=O [Example 179] |  |  | > 7.00 |  | 
39 | CCC(=O)c1cnc(Nc2cc(C)n(C)n2)cc1Nc1nccc(-c2ncn(C)n2)c1OC [Example 180] |  |  | > 7.00 |  | 
40 | [2H]C([2H])([2H])CC(=O)c1cnc(Nc2ccc(C(C)(C)O)c(F)n2)cc1Nc1ncccc1S(C)(=O)=O [Example 184] |  |  | > 7.00 |  | 
41 | [2H]C([2H])([2H])CC(=O)c1cnc(Nc2ccc(C(C)(C)O)c(F)n2)cc1Nc1nccc(-c2ncn(C)n2)c1OC [Example 185] |  |  | > 7.00 |  | 
42 | [2H]C([2H])([2H])n1cnc(-c2cccc(Nc3cc(NC(=O)C4CC4)ncc3C(=O)CC)c2OC)n1 [Example 189] |  |  | > 7.00 |  | 
43 | [2H]C([2H])([2H])CC(=O)c1cnc(Nc2ccc(C)nn2)cc1Nc1ncccc1S(C)(=O)=O [Example 190] |  |  | > 7.00 |  | 
44 | [2H]C([2H])([2H])CC(=O)c1cnc(Nc2cc(C)nc(C)n2)cc1Nc1ncccc1S(C)(=O)=O [Example 191] |  |  | > 7.00 |  | 
45 | [2H]C([2H])([2H])CC(=O)c1cnc(NC(=O)C2CC2)cc1Nc1nccc(-c2ncn(C)n2)c1OC [Example 193] |  |  | > 7.00 |  | 
46 | COc1c(Nc2cc(Nc3nc(C)c[nH]3)ncc2C(=O)C2CC2)cccc1-c1ncn(C)n1 [Example 196] |  |  | 6.00 to 7.00 |  | 

Source: US11053219B2, “Substituted pyridines as TYK2 inhibitors” (FronThera U.S. Pharmaceuticals LLC, priority 2018, dated 2021)
